Calls of active or inactive are those of the source. The calls are words filed in the database; no cut-off is given here.
Target: T1, Protein mono-ADP-ribosyltransferase PARP8 (Homo sapiens) (UniProt Q8N3A8)
T1 sequence (whole entry): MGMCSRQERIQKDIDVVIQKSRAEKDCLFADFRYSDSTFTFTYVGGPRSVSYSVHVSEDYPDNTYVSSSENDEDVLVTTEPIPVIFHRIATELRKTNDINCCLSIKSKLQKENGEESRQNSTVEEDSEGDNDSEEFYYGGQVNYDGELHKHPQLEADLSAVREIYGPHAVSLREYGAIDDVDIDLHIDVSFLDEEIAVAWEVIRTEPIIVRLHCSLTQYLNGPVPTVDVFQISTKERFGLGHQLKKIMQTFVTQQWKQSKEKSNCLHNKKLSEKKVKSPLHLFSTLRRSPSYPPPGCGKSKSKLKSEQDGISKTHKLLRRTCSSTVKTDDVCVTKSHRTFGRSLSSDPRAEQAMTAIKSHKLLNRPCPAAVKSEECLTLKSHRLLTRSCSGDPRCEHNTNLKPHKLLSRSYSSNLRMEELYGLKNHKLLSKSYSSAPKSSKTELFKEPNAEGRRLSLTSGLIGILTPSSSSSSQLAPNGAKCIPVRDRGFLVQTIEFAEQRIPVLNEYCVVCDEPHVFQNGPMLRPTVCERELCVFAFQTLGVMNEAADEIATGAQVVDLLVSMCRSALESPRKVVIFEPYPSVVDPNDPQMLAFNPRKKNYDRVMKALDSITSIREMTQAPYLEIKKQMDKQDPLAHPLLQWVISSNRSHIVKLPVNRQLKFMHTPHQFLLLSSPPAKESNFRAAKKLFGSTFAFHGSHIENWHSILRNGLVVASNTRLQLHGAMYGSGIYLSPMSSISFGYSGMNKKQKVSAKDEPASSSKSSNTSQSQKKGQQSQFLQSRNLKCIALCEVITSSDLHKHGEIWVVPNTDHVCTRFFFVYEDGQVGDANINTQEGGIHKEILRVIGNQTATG
Assay: Inhibition of PARP8 (unknown origin)

Compound	inhibition
CNC(=O)[C@H](CNC(=O)CCn1c(=O)[nH]c(=O)c2ccccc21)NC(=O)c1cnc2ccccc2c1	inactive
Cc1cc(OCC(=O)NCCNC(=O)c2cccc(COc3ccccc3C(N)=O)c2)c2c3c(c(=O)oc2c1)CCC3	inactive

Reference: ChEMBL document CHEMBL5331077, “Combining pharmacophore models derived from DNA-encoded chemical libraries with structure-based exploration to predict Tankyrase 1 inhibitors” (Eur J Med Chem, 2023)
